These are literature values, as cited in US12195551B2, “Combination of an ErbB-2/ErbB-3 bispecific antibody with endocrine therapy for breast cancer” (Merus N.V., priority 2017, dated 2025).

For this data set, the system named is HBCx-34 PDX model. The note with it: model characterisation; cited from earlier work.

Consider `CCCCCOC(=O)Nc1nc(=O)n([C@@H]2O[C@H](C)[C@@H](O)[C@H]2O)cc1F` [Capecitabine], for which the “response of the HBCx-34 PDX model” value is “responder”.
As for `CC(=O)O[C@@]12CO[C@@H]1C[C@H](O)[C@@]1(C)C(=O)[C@H](O)C3=C(C)[C@@H](OC(=O)[C@H](O)[C@@H](NC(=O)OC(C)(C)C)c4ccccc4)C[C@@](O)([C@@H](OC(=O)c4ccccc4)[C@H]21)C3(C)C` [Docetaxel], the “response of the HBCx-34 PDX model” value is “responder”.
